The text below walks through data of US20220145303A1, “FRAGILE X MENTAL RETARDATION PROTEIN INTERFERING OLIGONUCLEOTIDES AND METHODS OF USING SAME” (Nogra Pharma Limited, priority 2019, published 2022).

The subject of one series is human CRC cell lines. Nature of the series: Antisense-induced cell death with RIPK1 or MLKL inhibitor (PI/AnnV flow cytometry). Type of series: cell-based. The note with it: NEC1 10 μM, NSA 1 μM, 24 hours, FIGS. 6E, 6F. As to the method:
To confirm the association of FMRP with components of the necroptosis pathway, cells were left untreated or transfected with either FMRP antisense oligonucleotide (final concentration 0.5 nM and 100 nM) or FMRP sense oligonucleotide (final concentration 100 nM); incubated with a pMLKL inhibitor (necrosulfonamide, NSA; final concentration 1 μM)(Calbiochem); or a pRIPK1 inhibitor (necrostatinl, NEC1; final concentration 10 μM)(Cayman Chemical, Ann Arbor, Mich. USA). After 24 hours cells were collected and analyzed by Western blot, or stained with FITC-Annexin V and PI for flow cytometry analysis, as previously described in Examples 1-3.
Background: A flow cytometer gives signals particle by particle.

The subject of series [1] is FMRP. Nature of the series: Western blot of FMRP after CREB antisense transfection. The following applies: human CRC cell lines, CREB antisense 200 nM, 24 or 48 hours, FIGS. 7D, 7F. The series is classed as cell-based. The method, then:
(§1) To asses if CREB regulates FMRP expression, CRC cell lines were transfected with either CREB antisense (ASc) (5′-[…]-3′) (SEQ ID NO: 16) or CREB sense (Ss) (5′-[…]-3′)(SEQ ID NO: 17)(final concentration 200 nM) for 24 or 48 hours. mRNA and total protein lysates were prepared and analyzed by RT-PCR and Western blot, respectively, as previously described in Examples 1 to 3.

The subject of a further series is CREB. Nature of the series: Western blot of CREB after CREB antisense transfection. The series is classed as cell-based. The following applies: human CRC cell lines, 200 nM, 24 or 48 hours, vs untreated or sense control, FIGS. 7D, 7E. As to the method: as §1
For orientation: Immunoblotting shows a protein as a band on a membrane.

A further series has as its system CRC cells. Nature of the series: Antisense-induced cell death after pan-caspase inhibitor pre-treatment (PI/AnnV flow cytometry). The series is classed as cell-based, human. The following applies: Q-VD-OPh 1 μM pre-treatment, FIG. 4C. As to the method:
(§2) Immunotools, Friesoythe, Germany) according to the manufacturer's instructions, and incubated with […] of propidium iodide (PI) for 30 min at 4° C. Cells were also transfected with either FMRP sense oligonucleotide or FMRP AS oligonucleotide (final concentration 100 nM) for 36 hours and analyzed for activated caspase 3 and caspase 8. […] Additionally, 36 hours (FIGS. 4F and 4G) or 48 hours post-transfection (FIGS. 4D and 4E), cells were pulsed with […] bromodeoxyuridine for 60 minutes, fixed in 70% cold ethanol, and stored at −20° C. for at least 3 hours. […] Fluorescence was measured using Gallios Flow Cytometer (Beckman Coulter, Life Sciences, Pasadena, Calif., USA) and analyzed using Kaluza software (Beckman Coulter). Viable cells were considered as AV^−/PI^− cells.

For a further series, the system named is caspase 3. Nature of the series: Activated caspase 3 by flow cytometry in CRC cells. Type of series: cell-based, human. The note with it: oligonucleotide 100 nM 36 hours, staurosporin 1 μM, FIGS. 4A, 4B. The method, then: as §2
The test system of series [2] is FMRP. Kind of series: FMRP knockdown: Western blot of FMRP after transfection with FMRP antisense or sense oligonucleotide. Type of series: cell-based, human. The following applies: 48 hours, AS 0.5-100 nM, S 100 nM. As to the method:
Total proteins were extracted from mouse colonic tissues, and lysed on ice in buffer containing 10 mM HEPES [pH 7.9], 10 mM KCl, 0.1 mM EthyleneDiamineTetraacetic Acid (EDTA), 0.2 mM Ethylene Glycol-bis (β-aminoethyl ether)-N,N,N′,N′-Tetraacetic Acid (EGTA) and 0.5% Nonidet P40 supplemented with 1 mM dithiothreitol (DTT), […], […], 1 mM phenylmethylsulfonyl fluoride (PMSF), 1 mM Na3VO4, and 1 mM NaF. Lysates were clarified by centrifugation and separated on sodium dodecyl sulphate (SDS)-polyacrylamide gel electrophoresis. Blots were incubated with antibodies against: FMRP (Cell Signaling, Danvers, Mass.), followed by a secondary antibody conjugated to horseradish peroxidase (Dako, Milan, Italy). After analysis, each blot was stripped and incubated with a mouse-anti-human monoclonal β-actin antibody (Sigma-Aldrich) to ascertain equivalent loading of the lanes.
Human CRC cell lines, DLD-1 and HCT-116, were obtained from the American Type Culture Collection (ATCC, Manassas, Va.) and cultured in RPMI 1640 (DLD-1) and McCoy's 5A (HCT-116) medium, respectively. All media were supplemented with 10% fetal bovine serum, 1% penicillin/streptomycin (both from Lonza, Verviers, Belgium). The normal human colon epithelial cell line (HCEC-1ct) was obtained from EVERCYTE GmbH (Vienna, Austria) and cultured in ColoUp® medium (EVERCYTE GmbH). Cells were maintained in a 37° C., 5% CO2, fully humidified incubator. Cell line lysates were prepared and analyzed by SDS-polyacrylamide gel electrophoresis/immunoblot using methods as previously described in Example 2. For immunofluorescent staining, cell lines were fixed with 3.7% formaldehyde for 10 minutes at 4° C., permeabilized with 0.1% Triton for 10 minutes at room temperature and blocked (1% bovine serum albumin, Tween 0.1%, glycine 2%) for 1 hour at room temperature. Fixed and blocked cells were incubated with anti-FMRP monoclonal antibody (1:500, Cell Signaling, Danvers, Mass.) overnight at 4° C. After washing with PBS, secondary antibody goat anti-rabbit Alexa 488 (1:2000, A11008; Invitrogen) was applied for 1 hour at room temperature. Slides were washed with PBS, mounted using Prolong Gold® anti-fade reagent with 4′,6-diamidino-2-phenylindole (P36931; Invitrogen) and analyzed by a Leica DMI4000 B microscope with Leica application suite software (V4.6.2).
Phosphorothioate single-stranded antisense oligonucleotides complementary to human FMRP [5′-[…]-3′ (SEQ ID NO: 6)] and single-stranded sense oligonucleotides [5′-[…]-3′ (SEQ ID NO: 15)] were synthesized. CRC cell lines and HCEC-1ct cells were transfected with either FMRP antisense (AS)(final concentration 0.5-100 nM) or FMRP sense oligonucleotide (S) (final concentration100 nM) for 24 and 48 hours, using Opti-MEM medium and lipofectamine 3000 reagent (Thermo Fisher Scientific, Waltham, Mass., USA) according to the manufacturer's instructions.

As to `COc1nccnc1NS(=O)(=O)c1ccc(NC(=O)/C=C/c2ccc([N+](=O)[O-])s2)cc1` [necrosulfonamide], in the series on human CRC cell lines, the “effect on FMRP antisense oligonucleotide-induced cell death” value was “protected from FMRP antisense oligonucleotide-induced cell death”. As to `CN1C(=O)C(Cc2c[nH]c3ccccc23)NC1=S` (stereo not drawn) [necrostatin 1], the “effect on FMRP antisense oligonucleotide-induced cell death” value in the series with human CRC cell lines is given as “protected from FMRP antisense oligonucleotide-induced cell death”. Turning to “5′-GCATCTCCACTCTGCTGGTT-3′ (listed as DNA, chemistry not given here) [CREB antisense oligonucleotide, CREB antisense (ASc)]”, the FMRP protein expression entry in the series with FMRP [1] is given as “concomitant reduction in FMRP protein expression”. The CREB protein expression entry in the series with CREB is recorded as “reduced expression of CREB protein”. As to `CC(C)[C@H](NC(=O)c1ccc2ccccc2n1)C(=O)N[C@@H](CC(=O)O)C(=O)COc1c(F)cccc1F` [Q-VD-OPh], in the series on CRC cells, the “effect of pre-treatment on FMRP antisense oligonucleotide-induced cell death” value was “did not alter FMRP antisense oligonucleotide-induced cell death”. For `CN[C@@H]1C[C@H]2O[C@@](C)([C@@H]1OC)n1c3ccccc3c3c4c(c5c6ccccc6n2c5c31)C(=O)NC4` [staurosporin, reference compound], the “percentage of activated caspase 3-positive cells” value with caspase 3 was “significantly increased”. Turning to “5′-ATGGAGGAGCTGGTGGTGGA-3′ (DNA, backbone and methylation of C not given here; further chemistry not fully specified) [sense oligonucleotide, single-stranded sense oligonucleotides, control, reference compound]”, the FMRP expression result in the series on FMRP [2] (DLD-1 cells, FIG. 3D) was “no significant inhibition”; in the series with FMRP [2] (HCEC-1ct cells, FIG. 3I), “no significant inhibition”; in the series with FMRP [2] (HCT-116 cells, FIG. 3G), “no significant inhibition”.
